Test [1] concerns the target T1, Yersinia protein tyrosine phosphatase (YOP) (Yersinia enterocolitica, UniProt P15273).
T1 construct: purchased Upstate Biotechnology
In kind it is biochemical.

A further test deals with T2, Src kinase (Homo sapiens, UniProt P12931).
T2 construct: purchased Upstate Biotechnology
As to the kind of experiment: Solution phase FRET assay of Src kinase activity (rhodamine labelled SHPS-1 peptide / SHP2-GFP). In kind it is biochemical. The settings on record: 10 µM staurosporine added to the reaction prior to Src enzyme; 3 units of Src kinase, 2 hours at 37°C. The protocol:
SHPS-1 peptide labelled with rhodamine is phosphorylated using 3 units of Src kinase (Upstate Biotechnology) in a 40 µl reaction containing 100 µM peptide, 50 mM Tris-HCl pH7.2, 1 mM ATP, 10 mM MgCl2, 10 mM β-mercaptoethanol, 0.1 mg/ml BSA and 0.015%(v/v) Brij 35, over a period of 2 hours at 37°C. Non-phosphorylated control samples are prepared under identical conditions in the absence of the kinase.
SHP2-GFP is diluted to 0.5 µM in assay buffer (50 mM Tris-HCl pH7.2, 10 mM β-mercaptoethanol, 0.5mg/ml BSA, 0.015% Brij 35). 98 µl of this solution is used per assay. Initial readings of the fluorescence of the SHP2-GFP construct are made using 485nm excitation wavelength and 520nm emission wavelength. Rhodamine labelled peptide (2µl of above phosphorylation reactions) is added to the SHP2-GFP solution and formation of FRET followed in real-time by measuring the decrease in fluorescence emission of SHP2-GFP at 520 nm as shown in Figure 13.
Phosphonlation of the peptide is prevented by inhibiting the enzyme, Src, with the potent kinase inhibitor staurosporine. Phosphorylation of the rhodamine labelled SHPS-1 peptide is performed as described above in the presence and absence of 10 µM staurosporine added to the reaction prior to Src enzyme.

T1 sequence (P15273 whole entry): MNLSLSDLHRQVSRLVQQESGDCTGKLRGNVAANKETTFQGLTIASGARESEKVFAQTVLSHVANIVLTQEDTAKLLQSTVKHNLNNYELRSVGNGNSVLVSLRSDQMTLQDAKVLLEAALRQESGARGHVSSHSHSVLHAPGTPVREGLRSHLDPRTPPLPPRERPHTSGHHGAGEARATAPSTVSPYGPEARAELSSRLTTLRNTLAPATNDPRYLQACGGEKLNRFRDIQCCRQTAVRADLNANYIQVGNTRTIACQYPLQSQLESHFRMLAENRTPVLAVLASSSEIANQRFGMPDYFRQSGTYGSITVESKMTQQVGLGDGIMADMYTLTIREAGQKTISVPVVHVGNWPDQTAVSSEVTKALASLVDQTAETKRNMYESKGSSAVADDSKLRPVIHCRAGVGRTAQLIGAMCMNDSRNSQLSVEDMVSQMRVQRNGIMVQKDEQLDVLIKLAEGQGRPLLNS
T2 sequence (P12931 whole entry): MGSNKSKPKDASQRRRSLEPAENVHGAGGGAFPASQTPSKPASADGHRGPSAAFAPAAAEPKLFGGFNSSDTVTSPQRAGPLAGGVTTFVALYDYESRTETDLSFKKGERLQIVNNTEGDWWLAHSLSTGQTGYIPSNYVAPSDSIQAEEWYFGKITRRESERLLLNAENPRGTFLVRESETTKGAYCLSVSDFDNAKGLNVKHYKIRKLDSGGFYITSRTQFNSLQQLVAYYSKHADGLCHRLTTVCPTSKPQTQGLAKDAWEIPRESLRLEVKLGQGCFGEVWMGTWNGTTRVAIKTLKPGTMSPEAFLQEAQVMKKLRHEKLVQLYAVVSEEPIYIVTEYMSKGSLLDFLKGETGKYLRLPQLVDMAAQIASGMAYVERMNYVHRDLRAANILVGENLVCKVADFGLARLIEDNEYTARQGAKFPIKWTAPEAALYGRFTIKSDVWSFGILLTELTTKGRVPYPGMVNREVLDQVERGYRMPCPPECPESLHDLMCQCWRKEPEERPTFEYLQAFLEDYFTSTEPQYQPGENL

As for `[Na+].[Na+].[Na+].[O]=[V]([O-])([O-])[O-]` [sodium orthovanadate, Sodium orthovanadate], the IC50 in test [1] was determined as 250 nM.

Regarding `CN[C@@H]1C[C@H]2O[C@@](C)([C@@H]1OC)n1c3ccccc3c3c4c(c5c6ccccc6n2c5c31)C(=O)NC4` [staurosporine], the “Inhibition of Src phosphorylation of SHPS-1 peptide (formation of FRET partnership with SHP2-GFP)” value at Src kinase is listed as “fail to form a FRET partnership”.

As a reminder, the IC50 is the concentration at which inhibition is half-maximal. A higher IC50 goes with a need for much substance.

These data come from patent publication EP1163363B1 (priority 1999, dated 2000).
